Experimental data reported in ChEMBL document CHEMBL5104169, “Design and synthesis of mogrol derivatives modified on a ring with anti-inflammatory and anti-proliferative activities” (Bioorg Med Chem Lett, 2022).

Key:
NCI-H1975 = experiment: Antiproliferative activity against human NCI-H1975 cells; format: functional, cell-based
NCI-H1299 = experiment: Antiproliferative activity against human NCI-H1299 cells; format: functional, cell-based
NCI-H460 = experiment: Antiproliferative activity against human NCI-H460 cells; format: functional, cell-based
A549 = experiment: Antiproliferative activity against human A549 cells; format: functional, cell-based
[1] = Cytotoxicity against mouse RAW264.7 cells assessed as cell viability at 10 uM measured after 24 hrs by CCK-8 assay relative to control; format: toxicity, cell-based; conditions: read-out: Activity
RAW264.7 [2] = experiment: Cytotoxicity against mouse RAW264.7 cells at 10 uM measured after 24 hrs by CCK-8 assay relative to control; format: toxicity, cell-based; conditions: raw264.7, 24 h
RAW264.7 [3] = experiment: Inhibition of LPS-induced NO production in mouse RAW264.7 cells at 10 uM relative to control; format: functional
RAW264.7 [4] = experiment: Inhibition of LPS-induced NO production in mouse RAW264.7 cells at 5 uM relative to control; format: functional

Structure (SMILES)	IC50 (NCI-H1975) [µM]	IC50 (NCI-H1299) [µM]	IC50 (NCI-H460) [µM]	IC50 (A549) [µM]	viability at 24 h, 10 µM [1] [%]	Activity (RAW264.7 [2])	inhibition at 10 µM (RAW264.7 [3]) [%]	inhibition at 5 µM (RAW264.7 [4]) [%]
CC(C)c1ccc2[nH]c3c(c2c1)C[C@@H]1C(=CC[C@@H]2[C@@]1(C)[C@H](O)C[C@]1(C)[C@@H]([C@H](C)CC[C@@H](O)C(C)(C)O)CC[C@@]21C)C3(C)C	> 30	> 30	25	25.4	> 95	–	–	–
C[C@H](CC[C@@H](O)C(C)(C)O)[C@H]1CC[C@@]2(C)[C@@H]3CC=C4[C@@H](C/C(=C\c5cccnc5)C(=O)C4(C)C)[C@]3(C)[C@H](O)C[C@]12C	13.4	14.6	11.1	11.1	–	Toxic	–	–
C[C@H](CC[C@@H](O)C(C)(C)O)[C@H]1CC[C@@]2(C)[C@@H]3CC=C4[C@@H](Cc5c([nH]c6ccc(Cl)cc56)C4(C)C)[C@]3(C)[C@H](O)C[C@]12C	18.5	19.1	23.1	> 30	> 95	–	–	–
C[C@H](CC[C@@H](O)C(C)(C)O)[C@H]1CC[C@@]2(C)[C@@H]3CC=C4[C@@H](Cc5cc6cc(F)ccc6nc5C4(C)C)[C@]3(C)[C@H](O)C[C@]12C	14.7	11.7	16.3	7.55	–	Toxic	–	–
O=c1[nH]cc(F)c(=O)[nH]1 [FLUOROURACIL]	1.98	3.53	–	1.65	–	–	–	–
C[C@H](CC[C@@H](O)C(C)(C)O)[C@H]1CC[C@@]2(C)[C@@H]3CC=C4[C@@H](C/C(=C\c5ccccc5)C(=O)C4(C)C)[C@]3(C)C(=O)C[C@]12C	> 30	> 30	32.5	16.1	–	Toxic	–	–
C[C@H](CC[C@@H](O)C(C)(C)O)[C@H]1CC[C@@]2(C)[C@@H]3CC=C4[C@@H](Cc5c([nH]c6ccccc56)C4(C)C)[C@]3(C)C(=O)C[C@]12C	> 30	> 30	> 30	27.9	–	–	78.2	–
C[C@H](CC[C@@H](O)C(C)(C)O)[C@H]1CC[C@@]2(C)[C@@H]3CC=C4[C@@H](Cc5c([nH]c6ccccc56)C4(C)C)[C@]3(C)[C@H](O)C[C@]12C	23.2	22.4	18.3	16.4	> 95	–	–	–
Cc1ccc(/C=C2\C[C@@H]3C(=CC[C@@H]4[C@@]3(C)[C@H](O)C[C@]3(C)[C@@H]([C@H](C)CC[C@@H](O)C(C)(C)O)CC[C@@]43C)C(C)(C)C2=O)cc1	15.1	> 30	13.7	9.91	–	Toxic	–	–
C=C1C(=O)O[C@@H]2C3O[C@]3(C)CC/C=C(\C)CC[C@@H]12 (some centres undefined)	–	–	–	–	–	–	–	91.9
Cc1ccc2[nH]c3c(c2c1)C[C@@H]1C(=CC[C@@H]2[C@@]1(C)C(=O)C[C@]1(C)[C@@H]([C@H](C)CC[C@@H](O)C(C)(C)O)CC[C@@]21C)C3(C)C	> 30	18.7	> 30	16.5	–	–	56.6	–
C[C@H](CC[C@@H](O)C(C)(C)O)[C@H]1CC[C@@]2(C)[C@@H]3CC=C4[C@@H](C/C(=C\c5ccc(Cl)cc5)C(=O)C4(C)C)[C@]3(C)[C@H](O)C[C@]12C	13.6	> 30	9.94	8.26	–	Toxic	–	–
C[C@H](CC[C@@H](O)C(C)(C)O)[C@H]1CC[C@@]2(C)[C@@H]3CC=C4[C@@H](Cc5cc6ccncc6nc5C4(C)C)[C@]3(C)[C@H](O)C[C@]12C	> 30	> 30	23.4	> 30	–	Toxic	–	–
C[C@H](CC[C@@H](O)C(C)(C)O)[C@H]1CC[C@@]2(C)[C@@H]3CC=C4[C@@H](Cc5cc6cc(Br)ccc6nc5C4(C)C)[C@]3(C)[C@H](O)C[C@]12C	25.7	27	> 30	8.99	–	Toxic	–	–
C[C@H](CC[C@@H](O)C(C)(C)O)[C@H]1CC[C@@]2(C)[C@@H]3CC=C4[C@@H](CC[C@H](O)C4(C)C)[C@]3(C)[C@H](O)C[C@]12C [MOGROL]	87.1	> 100	> 100	28.6	–	–	17.4	–
Cc1ccc(/C=C2\C[C@@H]3C(=CC[C@@H]4[C@@]3(C)C(=O)C[C@]3(C)[C@@H]([C@H](C)CC[C@@H](O)C(C)(C)O)CC[C@@]43C)C(C)(C)C2=O)cc1	19.1	> 30	24.3	22.1	–	Toxic	–	–
Cc1ccc2[nH]c3c(c2c1)C[C@@H]1C(=CC[C@@H]2[C@@]1(C)[C@H](O)C[C@]1(C)[C@@H]([C@H](C)CC[C@@H](O)C(C)(C)O)CC[C@@]21C)C3(C)C	> 30	> 30	31.5	22.6	–	–	45.1	–
C[C@H](CC[C@@H](O)C(C)(C)O)[C@H]1CC[C@@]2(C)[C@@H]3CC=C4[C@@H](C/C(=C\c5ccncc5)C(=O)C4(C)C)[C@]3(C)[C@H](O)C[C@]12C	12.7	13.3	15	11.6	–	Toxic	–	–
C[C@H](CC[C@@H](O)C(C)(C)O)[C@H]1CC[C@@]2(C)[C@@H]3CC=C4[C@@H](Cc5cc6ccccc6nc5C4(C)C)[C@]3(C)[C@H](O)C[C@]12C	18.7	20	18.9	17.2	–	Toxic	–	–
CC(C)c1ccc2[nH]c3c(c2c1)C[C@@H]1C(=CC[C@@H]2[C@@]1(C)C(=O)C[C@]1(C)[C@@H]([C@H](C)CC[C@@H](O)C(C)(C)O)CC[C@@]21C)C3(C)C	> 30	> 30	> 30	22.2	–	–	57.4	–
C[C@H](CC[C@@H](O)C(C)(C)O)[C@H]1CC[C@@]2(C)[C@@H]3CC=C4[C@@H](C/C(=C\c5ccccc5)C(=O)C4(C)C)[C@]3(C)[C@H](O)C[C@]12C	13.6	12	16	10.7	–	Toxic	–	–
C[C@H](CC[C@@H](O)C(C)(C)O)[C@H]1CC[C@@]2(C)[C@@H]3CC=C4[C@@H](Cc5cc6cc(Cl)ccc6nc5C4(C)C)[C@]3(C)[C@H](O)C[C@]12C	16.4	13.2	19	8.22	–	Toxic	–	–
C[C@H](CC[C@@H](O)C(C)(C)O)[C@H]1CC[C@@]2(C)[C@@H]3CC=C4[C@@H](C/C(=C\c5cccnc5)C(=O)C4(C)C)[C@]3(C)C(=O)C[C@]12C	12.7	16.4	16.5	12.6	–	Toxic	–	–
